Reference: patent US12319676B2, “Substituted amide compounds useful as farnesoid X receptor modulators” (BRISTOL-MYERS SQUIBB COMPANY, priority 2019, dated 2025)

The compounds below were run against T1, human FXR (Homo sapiens, UniProt Q96RI1) (assay: transient human FXR/Gal4-luciferase reporter assay). Conditions: Gal4-hFXR fusion construct, luciferase reporter in HEK293 cells; overnight incubation; response as percentage of 8 μM GW-4064 control.
T1 construct: expressed in transfected cells; host or cells: HEK293 cells stably carrying a 5xGal4 response element-luciferase reporter, transiently transfected with pcDNA3.1-Gal4-FXR
T1 sequence (Q96RI1 262-486 limits assumed): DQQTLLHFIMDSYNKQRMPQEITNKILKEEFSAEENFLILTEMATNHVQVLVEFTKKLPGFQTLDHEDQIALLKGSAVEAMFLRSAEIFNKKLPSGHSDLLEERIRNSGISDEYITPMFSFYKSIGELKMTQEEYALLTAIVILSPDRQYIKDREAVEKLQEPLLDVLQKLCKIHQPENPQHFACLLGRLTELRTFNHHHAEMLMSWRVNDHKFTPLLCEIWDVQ
Assay type: cell-based
In short: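 HEK293 cells stably carrying a 5×Gal4-response-element firefly luciferase reporter were transiently transfected with a Gal4 DBD-human FXR LBD fusion, then treated overnight with compounds at 37 °C. Steady-Glo luminescence, minus DMSO background, was expressed as percent of the response to 8 μM GW-4064.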

| Structure (SMILES) | EC50 [nM] |
| --- | --- |
| CNS(=O)(=O)c1cccc(N(CC23CCC(c4noc(C(C)(F)F)n4)(CC2)CC3)C(=O)C23CC(F)(C2)C3)c1 [Example 21, N-((4-(5-(1,1-difluoroethyl)-1,2,4-oxadiazol-3-yl)bicyclo[2.2.2]octan-1-yl)methyl)-3-fluoro-N-(3-(N-methylsulfamoyl)phenyl)bicyclo[1.1.1]pentane-1-carboxamide] | 4000 |
| N#Cc1cc(F)cc(N(CC23CCC(c4nc(C5CC5)no4)(CC2)CC3)C(=O)[C@H]2C[C@](O)(C(F)(F)F)C2)c1 [Example 63, (1S,3S)-N-(3-cyano-5-fluorophenyl)-N-((4-(3-cyclopropyl 1,2,4-oxadiazol-5-yl)bicyclo[2.2.2]octan-1-yl)methyl)-3-hydroxy-3-(trifluoromethyl)cyclobutane-1-carboxamide] | 1050 |
| CC(C)(C)c1noc(C23CCC(CN(c4cccc(C#N)c4)C(=O)[C@H]4C[C@](O)(C(F)(F)F)C4)(CC2)CC3)n1 [Example 39, (1S,3S)-N-((4-(3-(tert-butyl)-1,2,4-oxadiazol-5-yl)bicyclo[2.2.2]octan-1-yl)methyl)-N-(3-cyanophenyl)-3-hydroxy-3-(trifluoromethyl)cyclobutane-1-carboxamide] | 568 |
| CC(F)(F)c1nc(C23CCC(CN(c4cccc(P(C)(C)=O)c4)C(=O)[C@H]4C[C@](O)(C(F)(F)F)C4)(CC2)CC3)no1 [Example 26, (1S,3S)-N-((4-(5-(1,1-difluoroethyl)-1,2,4-oxadiazol-3-yl)bicyclo[2.2.2]octan-1-yl)methyl)-N-(3-(dimethylphosphoryl)phenyl)-3-hydroxy-3-(trifluoromethyl)cyclobutane-1-carboxamide] | 4000 |
| CC(C)(C)c1noc(C23CCC(CN(C(=O)C45CC(F)(C4)C5)c4cncc(C#N)c4)(CC2)CC3)n1 [Example 94, N-((4-(3-(tert-butyl)-1,2,4-oxadiazol-5-yl)bicyclo[2.2.2]octan-1-yl)methyl)-N-(5-cyanopyridin-3-yl)-3-fluorobicyclo[1.1.1]pentane-1-carboxamide] | 1320 |
| COC(=O)COc1cccc(N(CC23CCC(c4ccc(N(C)C)cc4)(CC2)CC3)C(=O)C2CCCCC2)c1 [Example 80, Methyl 2-(3-(N-((4-(4-(dimethylamino)phenyl)bicyclo[2.2.2]octan-1-yl)methyl)cyclohexanecarboxamido)phenoxy) acetate] | 1600 |
| CC(F)(F)c1nc(C23CCC(CN(C(=O)C4CC(F)(F)C4)c4cc(F)cc(C#N)c4)(CC2)CC3)no1 [Example 137, N-(3-cyano-5-fluorophenyl)-N-((4-(5-(1,1-difluoroethyl)-1,2,4-oxadiazol-3-yl)bicyclo[2.2.2]octan-1-yl)methyl)-3,3-difluorocyclobutane-1-carboxamide] | 103 |
| CC(F)(F)c1nc(C23CCC(CN(C(=O)C45CC(F)(C4)C5)c4cccc(C(N)=O)c4)(CC2)CC3)no1 [Example 29, N-(3-carbamoylphenyl)-N-((4-(5-(1,1-difluoroethyl)-1,2,4-oxadiazol-3-yl)bicyclo[2.2.2]octan-1-yl)methyl)-3-fluorobicyclo[1.1.1]pentane-1-carboxamide] | 902 |
| CNS(=O)(=O)c1cccc(N(CC23CCC(c4noc(C(C)(F)F)n4)(CC2)CC3)C(=O)C2CCC(F)(F)CC2)c1 [Example 23, N-((4-(5-(1,1-difluoroethyl)-1,2,4-oxadiazol-3-yl)bicyclo[2.2.2]octan-1-yl)methyl)-4,4-difluoro-N-(3-(N-methylsulfamoyl)phenyl)cyclohexane-1-carboxamide] | 4000 |
| CC(F)(F)c1nc(C23CCC(CN(C(=O)C45CC(F)(C4)C5)c4cccc(P(C)(C)=O)c4)(CC2)CC3)no1 [Example 25, N-((4-(5-(1,1-difluoroethyl)-1,2,4-oxadiazol-3-yl)bicyclo[2.2.2]octan-1-yl)methyl)-N-(3-(dimethylphosphoryl)phenyl)-3-fluorobicyclo[1.1.1]pentane-1-carboxamide] | 4000 |
| CC(F)(F)c1ccc(C23CCC(CN(C(=O)C45CC(F)(C4)C5)c4cccc(Br)c4)(CC2)CC3)nc1 [Example 48, N-(3-bromophenyl)-N-((4-(5-(1,1-difluoroethyl)pyridin-2-yl)bicyclo[2.2.2]octan-1-yl)methyl)-3-fluorobicyclo[1.1.1]pentane-1-carboxamide] | 288 |
| CC(F)(F)c1nc(C23CCC(CN(C(=O)C45CC(F)(C4)C5)c4cccc(Cl)c4)(CC2)CC3)no1 [Example 1, N-(3-chlorophenyl)-N-((4-(5-(1,1-difluoroethyl)-1,2,4-oxadiazol-3-yl)bicyclo[2.2.2]octan-1-yl)methyl)-3-fluorobicyclo[1.1.1]pentane-1-carboxamide] | 11 |
| CC(C)Oc1cccc(N(CC23CCC(c4noc(C(C)(F)F)n4)(CC2)CC3)C(=O)[C@H]2C[C@](O)(C(F)(F)F)C2)c1 [Example 126, (1S,3S)-N-((4-(5-(1,1-difluoroethyl)-1,2,4-oxadiazol-3-yl)bicyclo[2..2.2]octan-1-yl)methyl)-3-hydroxy-N-(3-isopropoxyphenyl)-3-(trifluoromethyl)cyclobutane-1-carboxamide] | 610 |
| CC(F)(F)c1nc(C23CCC(CN(C(=O)C45CC(F)(C4)C5)c4cccc(C#N)c4)(CC2)CC3)no1 [Example 4, N-(3-cyanophenyl)-N-((4-(5-(1,1-difluoroethyl)-1,2,4-oxadiazol-3-yl)bicyclo[2.2.2]octan-1-yl)methyl)-3-fluorobicyclo[1.1.1]pentane-1-carboxamide] | 12 |
| CC(C)(C)c1noc(C23CCC(CN(C(=O)C4CCOCC4)c4cccc(P(C)(C)=O)c4)(CC2)CC3)n1 [Example 46, N-((4-(3-(tert-butyl)-1,2,4-oxadiazol-5-yl)bicyclo[2.2.2]octan-1-yl)methyl)-N-(3-(dimethylphosphoryl)phenyl)tetrahydro-2H-pyran-4-carboxamide] | 4000 |
| CC(F)(F)c1nc(C23CCC(CN(C(=O)C45CC(F)(C4)C5)c4cccc(Br)c4)(CC2)CC3)no1 [Example 33, N-(3-bromophenyl)-N-((4-(5-(1,1-difluoroethyl)-1,2,4-oxadiazol-3-yl)bicyclo[2.2.2]octan-1-yl)methyl)-3-fluorobicyclo[1.1.1]pentane-1-carboxamide] | 13 |
| CC(F)(F)c1nc(C23CCC(CN(C(=O)C4CCC(F)(F)CC4)c4cccc(S(=O)(=O)NC5CC5)c4)(CC2)CC3)no1 [Example 20, N-(3-(N-cyclopropylsulfamoyl)phenyl)-N-((4-(5-(1,1-difluoroethyl)-1,2,4-oxadiazol-3-yl)bicyclo[2.2.2]octan-1-yl)methyl)-4,4-difluorocyclohexane-1-carboxamide] | 4000 |
| CC(C)(F)c1nc(C23CCC(CN(C(=O)C45CC(C(C)(C)O)(C4)C5)c4cccc(Br)c4)(CC2)CC3)no1 [Example 134, N-(3-bromophenyl)-N-((4-(5-(2-fluoropropan-2-yl)-1,2,4-oxadiazol-3-yl)bicyclo[2.2.2]octan-1-yl)methyl)-3-(2-hydroxypropan-2-yl)bicyclo[1.1.1]pentane-1-carboxamide] | 434 |
| O=C(N(CC12CCC(c3ccc(C(F)(F)F)cn3)(CC1)CC2)c1cccc(Nc2ncc(C3CC3)cn2)c1)C12CC(F)(C1)C2 [Example 105, N-(3-((5-cyclopropylpyrimidin-2-yl)amino)phenyl)-3-fluoro-N-((4-(5-(trifluoromethyl)pyridin-2-yl)bicyclo[2.2.2]octan-1-yl)methyl)bicyclo[1.1.1]pentane-1-carboxamide] | 292 |
| CC(C)Oc1cccc(N(CC23CCC(c4nc(C(C)(C)C)no4)(CC2)CC3)C(=O)[C@H]2C[C@](O)(C(F)(F)F)C2)c1 [Example 123, (1S,3S)—N-((4-(3-(tert-butyl)-1,2,4-oxadiazol-5-yl)bicyclo[2.2.2]octan-1-yl)methyl)-3-hydroxy-N-(3-isopropoxyphenyl)-3-(trifluoromethyl)cyclobutane-1-carboxamide] | 2000 |
| CC(C)(F)c1nc(C23CCC(CN(C(=O)N[C@H]4CC[C@H](O)CC4)c4ccc(F)c(Br)c4)(CC2)CC3)no1 [Example 101, 1-(3-bromo-4-fluorophenyl)-1-((4-(5-(2-fluoropropan-2-yl)-1,2,4-oxadiazol-3-yl)bicyclo[2.2.2]octan-1-yl)methyl)-3-((1R,4R)-4-hydroxycyclohexyl)urea] | 1520 |
| CS(=O)(=O)Nc1cccc(N(CC23CCC(c4nc(C5CC5)no4)(CC2)CC3)C(=O)[C@H]2C[C@](O)(C(F)(F)F)C2)c1 [Example 67, (1S,3S)-N-((4-(3-cyclopropyl-1,2,4-oxadiazol-5-yl)bicyclo[2.2.2]octan-1-yl)methyl)-3-hydroxy-N-(3-(methylsulfonamido)phenyl)-3-(trifluoromethyl)cyclobutane-1-carboxamide] | 4000 |
| CC(C)(C)c1noc(C23CCC(CN(C(=O)C4CCS(=O)(=O)CC4)c4cccc(P(C)(C)=O)c4)(CC2)CC3)n1 [Example 47, N-((4-(3-(tert-butyl)-1,2,4-oxadiazol-5-yl)bicyclo[2.2.2]octan-1-yl)methyl)-N-(3-(dimethylphosphoryl)phenyl)tetrahydro-2H-thiopyran-4-carboxamide 1,1-dioxide] | 4000 |
| C[C@]1(O)C[C@@H](C(=O)N(CC23CCC(c4noc(C(F)(F)F)n4)(CC2)CC3)c2cccc(C#N)c2)C1 [Example 117, (1S,3S)-N-(3-cyanophenyl)-3-hydroxy-3-methyl-N-((4-(5-(trifluoromethyl)-1,2,4-oxadiazol-3-yl)bicyclo[2.2.2]octan-1-yl)methyl)cyclobutane-1-carboxamide] | 1350 |
